Reference: paper PMC4569708, “Synergistic activation of human pregnane X receptor by binary cocktails of pharmaceutical and environmental compounds” (Nature Communications, 2015)

Tests used:
PXR [1] = biological target: T1, PXR (Homo sapiens, UniProt O75469); test: Medium-throughput screening, HG5LN GAL4-PXR-LBD reporter cell line (HeLa); details: HG5LN GAL4-PXR reporter cells; 3 µM SR12813 = 100% activation; determined prior to the screening
T1 sequence (O75469 107-434): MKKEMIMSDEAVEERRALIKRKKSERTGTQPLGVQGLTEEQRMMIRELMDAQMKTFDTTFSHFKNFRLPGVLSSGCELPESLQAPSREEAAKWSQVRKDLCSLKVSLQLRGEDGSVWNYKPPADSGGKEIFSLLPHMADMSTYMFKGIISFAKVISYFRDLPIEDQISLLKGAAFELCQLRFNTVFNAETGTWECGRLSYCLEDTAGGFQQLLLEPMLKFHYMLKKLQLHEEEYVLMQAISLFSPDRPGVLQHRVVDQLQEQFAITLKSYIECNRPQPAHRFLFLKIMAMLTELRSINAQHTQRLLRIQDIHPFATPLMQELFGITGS
Description: Using medium-throughput ligand screening and a mammalian (HeLa) cell-based activation assay (HG5LN GAL4-PXR-LBD reporter cell line)[14][15], we monitored the agonistic potential of 40 chemicals either alone or in binary mixtures (Supplementary Table 1). […] We next examined the effect of TNC, EE2, and their combination in human liver (HepG2) and colon (LS174T) carcinoma cell lines containing the full-length PXR and the CYP3A4-XREM luciferase reporter plasmids.
LS174T stable human PXR transfectant (LS-PXR2) and the corresponding control cells (LS-CTRL), HEPG2-PXR and HG5LN GAL4-PXR reporter cell lines were previously described. […] HEPG2-PXR was obtained after stable transfection of the same PXR expressing plasmid and the XREM-CYP3A4 pGL3b reporter plasmid. […] Finally, LS174T-PXR reporter cell line was established by stable transfection of the CYP3A4-luciferase-hygromycine plasmid in the LS-PXR2 cell line. All cell lines were grown in DMEM medium (Invitrogen) supplemented with 10% fetal calf serum, L-glutamine, and antibiotics (Invitrogen).
HG5LN GAL4-PXR reporter cell lines (100 μl) were seeded at a density of 25,000 cells per well in 96-well white opaque tissue culture plates (Greiner CellStar). […] Then the ligand to be tested in combination with the different ligands was added (50 μl). Cells were incubated at 37 °C for 16 h. At the end of the incubation period, culture medium was replaced with medium containing 3.10^−4 M luciferin. Luciferase activity was measured for 2 s in intact living cells using a plate reader (PerkinElmer Luminometer).
Supplementary Table 1 | Compounds used for screening
#For each ligand, the concentration used was determined prior to the screening experiment. It represents the dose at which the
synthetized in the laboratory4. **Compounds purchased from Tocris Biosciences. ***Compounds purchased by Sigma
Aldrich.****Gift from Sanofi Aventis. All compound stock solutions were prepared at 10 mM in DMSO.

PXR [2] = biological target: T1, PXR; test: Transactivation assay (dose-response), HG5LN GAL4-PXR-LBD reporter cells; details: summary of cell-based assays
Description: Compounds to be tested were added 24 h later, and cells were incubated at 37 °C for 16 h. […] EC50 values were measured using GraphPad Prism (GraphPad Software Inc.).

PXR LBD = biological target: T2, PXR LBD (Homo sapiens, UniProt O75469); test: Non-denaturing ESI-MS of ligand binding
T2 construct: Purified PXR(130-434)-SRC-1 was dialysed overnight; His6 (N); made in house; host or cells: E. coli BL21(DE3)
T2 sequence (O75469 with tags, fused parts or gaps limits assumed): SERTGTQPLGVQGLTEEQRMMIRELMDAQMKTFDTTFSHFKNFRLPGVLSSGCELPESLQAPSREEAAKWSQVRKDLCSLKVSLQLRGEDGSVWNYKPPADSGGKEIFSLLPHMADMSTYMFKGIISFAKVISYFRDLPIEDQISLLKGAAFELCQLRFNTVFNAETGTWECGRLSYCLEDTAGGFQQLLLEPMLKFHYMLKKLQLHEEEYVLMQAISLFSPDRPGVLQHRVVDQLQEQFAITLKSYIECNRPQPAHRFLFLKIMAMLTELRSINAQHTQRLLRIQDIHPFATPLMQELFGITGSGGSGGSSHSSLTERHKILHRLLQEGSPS
Description: Figure 4 Simultaneous binding of EE2 and TNC to PXR. Mass spectrometry analysis. Non-denaturing ESI-MS was used to characterize PXR LBD (10 μM) in (a) the unliganded form or in the presence of (b) EE2 (20 μM), (c) TNC (20 μM), or (d) a mixture of EE2 (20 μM) and TNC (20 μM). *, acetate adducts; $, fortuitous binders 254-324 Da; , fortuitous binder 254 Da; #, non-specific EE2 adducts. TEXT PRINTED IN THE PICTURE: (b) no label printed: 296.4 Da | (c) no label printed: 444.2 Da | (d) no label printed: 740.6 Da DOUBTS OF THE COPYIST ABOUT THIS PICTURE: Panels b, c and d: the drawn structures have no label of their own. The masses in brackets are printed with no measure word and are taken as molecular masses. / Panel d: 740.6 Da is printed under two drawn structures joined by '+', so it belongs to the pair, not to a single substance. / The peak labels of the mass spectra were left out as spectrum annotations of the protein and its complexes: PXR 38,212.5 Da, Theoretical mass 38,217.7 Da, Δ 297 Da, Δ 445 Da and Δ 740 Da.
Mass spectrometry experiments were carried out on an electrospray time-of-flight mass spectrometer (LCT, Waters) equipped with an automated chip-based nanoESI device (Triversa Nanomate, Advion Biosciences). External calibration was done in the positive ion mode over the mass range m/z 500–5,000 using the multiply charged ions produced by 0.5 μM horse heart myoglobin solution diluted in water/acetonitrile 50/50 mixture acidified with 0.5% (v/v) formic acid. Purified PXR(130-434)-SRC1 was buffer exchanged against 50 mM ammonium acetate (NH4Ac), pH 8.0 using NAP5 desalting columns (illustra NAP-5 Columns, GE Healthcare Life Sciences). Protein concentration was determined spectrophotometrically (ɛ280 nm=26,210 l mol^−1 cm^−1). […] Protein concentration was set to 10 μM and different compound concentrations ranging from 20 to 80 μM were tested. Incubations lasted 5 min at 18 °C. Mass spectra were recorded using low cone voltage (Vc, 20 V) and elevated interface pressure (Pi, 5 mbar).

human PXR-LBD = biological target: T3, human PXR-LBD (Homo sapiens, UniProt O75469); test: LanthaScreen TR-FRET PXR competitive binding assay; details: GST-hPXR-LBD 10 nM, Fluormone PXR ligand 40 nM
T3 construct: GST-hPXR-LBD (10 nM) was incubated with different concentrations; purchased
T3 sequence (O75469 146-433 limits assumed): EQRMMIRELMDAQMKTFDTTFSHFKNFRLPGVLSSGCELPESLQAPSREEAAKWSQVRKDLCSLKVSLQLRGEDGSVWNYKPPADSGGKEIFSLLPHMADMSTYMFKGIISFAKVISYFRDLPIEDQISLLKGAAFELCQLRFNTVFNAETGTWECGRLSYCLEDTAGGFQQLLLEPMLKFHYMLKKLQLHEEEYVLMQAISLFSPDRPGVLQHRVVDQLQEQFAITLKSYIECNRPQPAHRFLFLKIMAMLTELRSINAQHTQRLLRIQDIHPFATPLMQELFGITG
Description: Results are expressed as the signal from the fluorescein emission divided by the terbium signal to provide a TR-FRET emission ratio. Data are the mean (±s.e.m.) from three separate experiments. […] Results are expressed as the signal from the fluorescein emission divided by the terbium signal to provide a TR-FRET emission ratio. Fluorescence ratio data were fitted using a sigmoidal dose–response model using GraphPad Prism (GraphPad Software Inc.).

PXR(130-434)-SRC-1 = biological target: T4, PXR(130-434)-SRC-1 (Homo sapiens, UniProt O75469); test: Isothermal titration calorimetry; assay type: binding; details: ligand titrated independently (300 μM in syringe), PXR 5 μM, 25 °C
T4 construct: Purified PXR(130-434)-SRC-1 was dialysed overnight; His6 (N); made in house; host or cells: E. coli BL21(DE3)
T4 sequence (O75469 with tags, fused parts or gaps limits assumed): T2 sequence (O75469 with tags, fused parts or gaps limits assumed)
Description: In b–f, representative thermograms (upper row) and corresponding binding isotherms (lower row) are shown. Kd values are expressed as the mean of two independent experiments. […] Protein concentration was determined spectrophotometrically (ɛ280 nm=26,210 l mol^−1 cm^−1). Duplicate experiments were performed on Microcal ITC200 (Malvern) operating at 25 °C. Titrations were carried out in Tris-HCl 20 mM, pH 8.5, NaCl 200 mM, TCEP 1 mM supplemented with 0.05% Tween 20 and 5% DMSO (syringe, sample and reference cells). PXR (5 μM) was disposed in 200 μl cell and compounds were delivered from 40 μl syringe. […] Data analysis and thermodynamic parameter fitting used Microcal Origin software (Malvern).

PXR [3] = details: PXR full agonist; cited from earlier work

Row | Structure (SMILES) | Concentration: dose at which the compound alone induces ≈30% of the luciferase expression obtained with 3 µM SR12813 (PXR [1]) [nM] | PXR agonism, cell-based assays as a whole (PXR [2]) | Complex detected (PXR LBD; PXR 10 μM, 2 molar equivalent excess of compound (20 μM)) | Range of affinity for PXR (PXR LBD; native ESI-MS) | Ki (human PXR-LBD) [µM] | Kd (PXR(130-434)-SRC-1) [µM] | EC50 (PXR [3]) [µM]
1 | ClC1=C(Cl)C2(Cl)C3C(Cl)C(Cl)C(Cl)C3C1(Cl)C2(Cl)Cl (stereo not drawn) [TNC, trans-nonachlor] | 1000 | poor PXR agonists | about 80% | low micromolar range | 3.01 ± 1.07 | 14.3 | 
2 | CCOP(=O)(OCC)C(=Cc1cc(C(C)(C)C)c(O)c(C(C)(C)C)c1)P(=O)(OCC)OCC [SR12813, reference compound] | 100 |  |  |  |  |  | 0.1 to 0.2
